Assay results: US20100029590A1, “METHODS FOR TREATING OR PREVENTING HEMORRHAGIC CYSTITIS USING A GLYCEROPHOSPHATE SALT” (PRELIEF INC., priority 2007, published 2010)

Tested on: patients suffering from radiation cystitis
Assay: Clinical observation of radiation cystitis patients after prostatic brachytherapy given oral Prelief® (CGP): average number of micturitions per night and symptoms
Assay type: in vivo, human
Conditions: for frequency of urination: six patients
From the text: This example depicts a method of using calcium glycerophosphate (CGP) in treating radiation cystitis in a clinical setting. Methods similar to that exemplified herein, however, is equally applicable to using any glycerophosphate salt in treating or preventing any type of hemorrhagic cystitis.
All six patients, aging from 51 to 74 year old at the time, were under prostatic brachytherapy treatment. […] Two Prelief® tablets, each containing about 0.335 gram CGP, were orally administered to each patient three times a day starting at about 0 to 8 months after the brachytherapy. […] Some patients were also treated with another therapy after the radiation, such as by a stent, or with the administration of AINES, Trospium Chloride, or Tamsulosina. On their post brachytherapy visitations, each patient was asked, among other things, the average number of micturitions per night.
This is in comparison to up to 12 times per night expected micturations in severe cases of this type when patients are given regular medications. The frequency of urination was further reduced by continuing oral administration of CGP.
14, 2002. […] Oral administration of CGP was again reported to be effective in reducing symptoms of hemorrhagic cystitis, e.g., the frequency of urination was reduced to about 7 times or about 2.5 times per night after oral administration of CGP for about 4 months or about 9 months, respectively, following the removal of the stent.

calcium glycerophosphate [CGP]
frequency of urination, patient #1 (patient #1, about 1 month following removal of a stent (increased symptoms)): about 11 times per night | frequency of urination, patient #1 (patient #1, about 3 months following brachytherapy, before oral CGP (baseline)): about 11 times per night | frequency of urination, patient #1 (patient #1, after oral administration of CGP for about 5 months): about 7 times per night | frequency of urination, patient #1 (patient #1, oral CGP for about 4 months following removal of the stent): about 7 times per night | frequency of urination, patient #1 (patient #1, oral CGP for about 9 months following removal of the stent): about 2.5 times per night | symptoms of radiation cystitis (reported by each of the six patients after oral administration of CGP): Reduced symptoms of radiation cystitis | pain in bladder (reported by the patients, oral CGP (data not shown)): reduced pain in bladder | frequency of urination (after oral administration of CGP for about three months): 4.5-7 times per night | frequency of urination (before oral administration of CGP (baseline)): 8-11 times per night | frequency of urination (succeeding seven months of oral CGP): 3-7 times per night
